# Test results: patent US20070112018A1, “Treatment of peripheral arterial occlusive disease” (priority 2005, published 2007)
# Legend:
# [1] = in vivo; cited from earlier work
# [2] = male, human, in vivo
# Protocol: In another study, three dose levels of rifalazil were administered for the treatment of non-gonococcal urethritis in 170 male patients. Doses used were in this study were single-doses of 2.5, 12.5 mg and 25 mg. Males were between 18-45 years of age with signs or symptoms of urethritis, including urethral discharge.
# [3] = 300 mg, 3 days, 2 years of follow-up; cited from earlier work
# [4] = system: C. pneumoniae; experiment: Rabbit model of atherosclerosis accelerated by C. pneumoniae infection, cholesterol diet; conditions: C. pneumoniae-infected rabbits; rifalazil 5 mg/kg or azithromycin 30 mg/kg PO daily 1 week then twice weekly 6 weeks; 19 weeks after beginning treatment
# Protocol: Thirty received three separate C. pneumoniae inoculations performed at 3-week intervals. Similarly, 15 control rabbits were intranasally inoculated with 1 mL of normal saline under the same conditions.
# Nineteen weeks after beginning antibiotic treatment, the rabbits were euthanized. After euthanasia, hearts were examined histologically and by immunofluorescence. Animal serum samples were also examined for seropositivity to the infecting organism.
# [5] = system: C. pneumoniae; conditions: cited from earlier work
Structure (SMILES),t1/2 [1],incidence of AEs considered possibly related to study drug [2] [%],incidence of clinically significant laboratory abnormalities [2] [%],morbidity or mortality in PAOD patients [3],Plaque Area Stenosis (%) [4] [%],"prevention of progression of lower limb atherosclerosis ([5]; daily for 28 days, C. pneumoniae seropositive men, almost 3 years)",number of invasive revascularization procedures ([5]; daily for 28 days),soft plaque components in carotid arteries ([5]; over a 6-month period)
CN[C@H]1C(=O)N[C@@H]2Cc3ccc(cc3)Oc3cc4cc(c3O[C@@H]3O[C@H](C(=O)O)[C@@H](O)[C@H](O)[C@H]3NC(=O)CCCCCCCCC(C)C)Oc3ccc(cc3Cl)[C@@H](O)[C@@H]3NC(=O)[C@H](NC(=O)[C@@H]4NC(=O)[C@@H](NC2=O)c2cc(cc(O)c2Cl)Oc2cc1ccc2O)c1ccc(O)c(c1)-c1c(O[C@H]2O[C@H](CO)[C@@H](O)[C@H](O)[C@@H]2O)cc(O)cc1[C@@H](C(=O)NCCCN(C)C)NC3=O [Dalbavancin],approximately 180 hours,–,–,–,–,–,–,–
CC[C@H]1OC(=O)[C@H](C)[C@@H](O[C@H]2C[C@@](C)(OC)[C@@H](O)[C@H](C)O2)[C@H](C)[C@@H](O[C@@H]2O[C@H](C)C[C@H](N(C)C)[C@H]2O)[C@](C)(O)C[C@@H](C)CN(C)[C@H](C)[C@@H](O)[C@]1(C)O [azithromycin],65 h,24,21,no significant reduction of morbidity or mortality,30.2,–,–,–
CC[C@H]1OC(=O)[C@H](C)[C@@H](O[C@H]2C[C@@](C)(OC)[C@@H](O)[C@H](C)O2)[C@H](C)[C@@H](O[C@@H]2O[C@H](C)C[C@H](N(C)C)[C@H]2O)[C@](C)(O)C[C@@H](C)/C(=N\OCOCCOC)[C@H](C)[C@@H](O)[C@]1(C)O [roxithromycin],–,–,–,–,–,statistically significant benefit,reduced the number of invasive revascularization procedures,statistically significant reduction of soft plaque components
